Measurements from publication PMC9120017, “Inhibition mechanism of the chloride channel TMEM16A by the pore blocker 1PBC” (Nature Communications, 2022).
Read-outs that look alike come from different tables or passages of the source.

Target: T1, mouse TMEM16A mutant G510P (Mus musculus, UniProt Q8BHY3, G510P)
T1 construct: expressed in transfected cells; host or cells: HEK293T
T1 sequence (Q8BHY3 1-960 G510P): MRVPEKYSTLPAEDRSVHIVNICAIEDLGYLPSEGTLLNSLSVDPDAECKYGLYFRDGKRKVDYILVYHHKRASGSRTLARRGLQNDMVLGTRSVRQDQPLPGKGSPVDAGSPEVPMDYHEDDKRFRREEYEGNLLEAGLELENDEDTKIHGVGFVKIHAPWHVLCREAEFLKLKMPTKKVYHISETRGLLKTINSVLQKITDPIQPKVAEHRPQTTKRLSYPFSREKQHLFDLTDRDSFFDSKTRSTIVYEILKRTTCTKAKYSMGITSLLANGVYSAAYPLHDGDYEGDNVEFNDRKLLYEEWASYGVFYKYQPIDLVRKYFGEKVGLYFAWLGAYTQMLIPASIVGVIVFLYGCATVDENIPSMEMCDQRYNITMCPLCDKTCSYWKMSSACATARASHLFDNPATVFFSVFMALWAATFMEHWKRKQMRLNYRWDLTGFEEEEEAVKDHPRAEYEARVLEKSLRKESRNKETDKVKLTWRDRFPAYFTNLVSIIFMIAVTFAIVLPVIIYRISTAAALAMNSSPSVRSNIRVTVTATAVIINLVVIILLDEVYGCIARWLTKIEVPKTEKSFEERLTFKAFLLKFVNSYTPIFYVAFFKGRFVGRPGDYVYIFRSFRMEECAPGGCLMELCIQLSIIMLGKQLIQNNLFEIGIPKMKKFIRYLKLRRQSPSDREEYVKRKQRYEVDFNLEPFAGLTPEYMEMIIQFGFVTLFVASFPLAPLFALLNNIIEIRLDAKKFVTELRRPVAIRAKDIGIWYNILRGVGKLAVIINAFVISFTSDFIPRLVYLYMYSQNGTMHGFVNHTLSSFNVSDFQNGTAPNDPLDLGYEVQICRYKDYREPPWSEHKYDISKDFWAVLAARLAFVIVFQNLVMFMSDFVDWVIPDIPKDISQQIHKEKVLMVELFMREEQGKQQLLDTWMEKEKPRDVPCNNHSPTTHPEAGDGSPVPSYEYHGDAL
Assay: Inside-out patch recording of 1PBC block, mutant G510P
Assay type: cell-based
Conditions: for remaining activity at 3 µM: 1PBC 3; for remaining activity at 3 µM / remaining activity at 10 µM / remaining activity at 30 µM / remaining activity at 100 µM: read-out: fraction of unblocked current; for remaining activity at 10 µM: 1PBC 10; for remaining activity at 30 µM: 1PBC 30; for remaining activity at 100 µM: 1PBC 100
Procedure: HEK293T cells (ATCC CRL-1573) were maintained in Dulbecco’s modified Eagle’s medium (DMEM; Sigma-Aldrich) supplemented with 10 U ml^−1 penicillin, 0.1 mg ml^−1 streptomycin (Sigma-Aldrich), 2 mM L-glutamine (Sigma-Aldrich), and 10% FBS (Sigma-Aldrich) in a humidified atmosphere containing 5% CO2 at 37 °C. HEK293S GnTI^− cells (ATCC CRL-3022) were maintained in HyClone HyCell TransFx-H medium (GE Healthcare) supplemented with 10 U ml^−1 penicillin, 0.1 mg ml^−1 streptomycin, 4 mM L-glutamine, 0.15% poloxamer 188 (Sigma-Aldrich), and 1% FBS in an atmosphere containing 5% CO2 at 185 rpm at 37 °C. The ac splice variant of mouse TMEM16A (UniProt ID: Q8BHY3), mouse TMEM16B (UniProt ID: Q8CFW1), or mouse TMEM16F (UniProt ID: Q6P9J9) bearing a 3C cleavage site, a Venus YFP, a Myc tag, and a Streptavidin-binding peptide (SBP) downstream of the open reading frame in a modified pcDNA3.1 vector (Invitrogen) were used as described previously[21],[31]. Mutations were introduced using a modified QuikChange method[58] and were verified by sequencing.
HEK293T cells were transfected with 3–4 μg DNA per 6 cm Petri dish using the calcium phosphate co-precipitation method and were used within 24–96 h after transfection. Recordings were performed on inside-out patches excised from HEK293T cells expressing the construct of interest. Patch pipettes were pulled from borosilicate glass capillaries (O.D. 1.5 mm, I.D. 0.86 mm, Sutter Instrument) and were fire-polished with a microforge (Narishige) before use. Pipette resistance was typically 3–8 MΩ when filled with the recording solutions detailed below. Seal resistance was typically 4 GΩ or higher. Voltage-clamp recordings were made using Axopatch 200B, Digidata 1550, and Clampex 10.7 (Molecular Devices). Analog signals were filtered with the in-built 4-pole Bessel filter at 10 kHz and were digitized at 20 kHz. Solution exchange was achieved using a gravity-fed system through a theta glass pipette mounted on an ultra-fast piezo-driven stepper (Siskiyou). […] All recordings were performed at 20 °C.
A symmetrical ionic condition was used throughout. Stock solution with Ca^2+-EGTA contained 150 mM NaCl, 5.99 mM Ca(OH)2, 5 mM EGTA, and 10 mM HEPES at pH 7.40. Stock solution with EGTA contained 150 mM NaCl, 5 mM EGTA, and 10 mM HEPES at pH 7.40. Free Ca^2+ concentrations were adjusted by mixing the stock solutions at the required ratios calculated using the WEBMAXC program (http://web.stanford.edu/~cpatton/webmaxcS.htm). Patch pipettes were filled with the stock solution with Ca^2+-EGTA, which has a free Ca^2+ concentration of 1 mM. 1PBC (ChemBridge) stock was reconstituted in anhydrous DMSO (Sigma-Aldrich) at 100 mM and stored at −20 °C. Working solutions with 1PBC were prepared by serial dilution. Unless otherwise stated, experiments were performed at a saturating Ca^2+ concentration as shown in Supplementary Table 1 and the primary data were corrected for current rundown as described previously[21],[25].
Concentration-response relations, obtained from the ratio of the I-V plots before and after the application of the blocker, were fitted to the Hill equation,1 I/Imax=1/1+IC50/[blocker]^h where I/Imax is the normalized current responses, IC50 defines the concentration at which inhibition is at its half-maximum, and h is the Hill coefficient.

Question: Which results are given for `N#Cc1c(C(F)(F)F)cc(O)n2c1nc1ccccc12` [1PBC]?
Answer: IC50 (0 mV, 15 µM Ca2+): 65.7 µM; I/Imax_+80mV (3 μM 1PBC): 0.9738; I/Imax_-80mV (3 μM 1PBC, -80 mV): 0.9802; I/Imax_+80mV (10 μM 1PBC): 0.8477; I/Imax_-80mV (10 μM 1PBC, -80 mV): 0.885; I/Imax_+80mV (30 μM 1PBC): 0.6076; I/Imax_-80mV (30 μM 1PBC, -80 mV): 0.6861; I/Imax_+80mV (100 μM 1PBC): 0.3872; I/Imax_-80mV (100 μM 1PBC, -80 mV): 0.4945; remaining activity at 3 µM (0 mV): 95.8%; remaining activity at 3 µM (20 mV): 95.6%; remaining activity at 3 µM (40 mV): 96.9%; remaining activity at 3 µM (60 mV): 95.5%; remaining activity at 3 µM (80 mV): 97.4%; remaining activity at 3 µM (100 mV): 99.8%; remaining activity at 3 µM (120 mV): 99.8%; remaining activity at 3 µM (140 mV): 104%; remaining activity at 3 µM (-20 mV): 96%; remaining activity at 3 µM (-40 mV): 97.4%; remaining activity at 3 µM (-60 mV): 99%; remaining activity at 3 µM (-80 mV): 98%; remaining activity at 3 µM (-100 mV): 97.4%; remaining activity at 3 µM (-120 mV): 96.4%; remaining activity at 3 µM (-140 mV): 96%; remaining activity at 10 µM (0 mV): 86.9%; remaining activity at 10 µM (20 mV): 85.8%; remaining activity at 10 µM (40 mV): 85%; remaining activity at 10 µM (60 mV): 84.7%; remaining activity at 10 µM (80 mV): 84.8%; remaining activity at 10 µM (100 mV): 86%; remaining activity at 10 µM (120 mV): 86.5%; remaining activity at 10 µM (140 mV): 87.9%; remaining activity at 10 µM (-20 mV): 88%; remaining activity at 10 µM (-40 mV): 90.2%; remaining activity at 10 µM (-60 mV): 89.1%; remaining activity at 10 µM (-80 mV): 88.5%; remaining activity at 10 µM (-100 mV): 89.4%; remaining activity at 10 µM (-120 mV): 88.8%; remaining activity at 10 µM (-140 mV): 89%; remaining activity at 30 µM (0 mV): 64.5%; remaining activity at 30 µM (20 mV): 64.5%; remaining activity at 30 µM (40 mV): 63.6%; remaining activity at 30 µM (60 mV): 62.9%; remaining activity at 30 µM (80 mV): 60.8%; remaining activity at 30 µM (100 mV): 62.7%; remaining activity at 30 µM (120 mV): 62.8%; remaining activity at 30 µM (140 mV): 65.9%; remaining activity at 30 µM (-20 mV): 64.6%; remaining activity at 30 µM (-40 mV): 66.2%; remaining activity at 30 µM (-60 mV): 68.7%; remaining activity at 30 µM (-80 mV): 68.6%; remaining activity at 30 µM (-100 mV): 69.3%; remaining activity at 30 µM (-120 mV): 71.3%; remaining activity at 30 µM (-140 mV): 73.4%; remaining activity at 100 µM (0 mV): 43.2%; remaining activity at 100 µM (20 mV): 42.1%; remaining activity at 100 µM (40 mV): 40.7%; remaining activity at 100 µM (60 mV): 40.1%; remaining activity at 100 µM (80 mV): 38.7%; remaining activity at 100 µM (100 mV): 39.6%; remaining activity at 100 µM (120 mV): 40.6%; remaining activity at 100 µM (140 mV): 42.9%; remaining activity at 100 µM (-20 mV): 44.4%; remaining activity at 100 µM (-40 mV): 47.1%; remaining activity at 100 µM (-60 mV): 49.1%; remaining activity at 100 µM (-80 mV): 49.4%; remaining activity at 100 µM (-100 mV): 50.5%; remaining activity at 100 µM (-120 mV): 52.6%; remaining activity at 100 µM (-140 mV): 52.8%; IC50 (20 mV, 15 µM Ca2+): 63.2 µM; IC50 (40 mV, 15 µM Ca2+): 60.2 µM; IC50 (60 mV, 15 µM Ca2+): 58.2 µM; IC50 (80 mV, 15 µM Ca2+): 54.9 µM; IC50 (100 mV, 15 µM Ca2+): 59.3 µM; IC50 (120 mV, 15 µM Ca2+): 60.9 µM; IC50 (140 mV, 15 µM Ca2+): 69.5 µM; IC50 (-20 mV, 15 µM Ca2+): 68.2 µM; IC50 (-40 mV, 15 µM Ca2+): 76.6 µM; IC50 (-60 mV, 15 µM Ca2+): 83.4 µM; IC50 (-80 mV, 15 µM Ca2+): 83.4 µM; IC50 (-100 mV, 15 µM Ca2+): 87.4 µM; IC50 (-120 mV, 15 µM Ca2+): 94.4 µM; IC50 (-140 mV, 15 µM Ca2+): 98.6 µM; IC50 (G510P, V 0 mV): 65.7 µM; IC50 (G510P, V 20 mV): 63.2 µM; IC50 (G510P, V 40 mV): 60.2 µM; IC50 (G510P, V 60 mV): 58.2 µM; IC50 (G510P, V 80 mV): 54.9 µM; IC50 (G510P, V 100 mV): 59.3 µM; IC50 (G510P, V 120 mV): 60.9 µM; IC50 (G510P, V 140 mV): 69.5 µM; IC50 (G510P, V -20 mV): 68.2 µM; IC50 (G510P, V -40 mV): 76.6 µM; IC50 (G510P, V -60 mV): 83.4 µM; IC50 (G510P, V -80 mV): 83.4 µM; IC50 (G510P, V -100 mV): 87.4 µM; IC50 (G510P, V -120 mV): 94.4 µM; IC50 (G510P, V -140 mV): 98.6 µM
